Like-named read-outs stand apart in the source and are kept apart here.
Target: T1, P. aeruginosa PAO1 ModA (Pseudomonas aeruginosa, UniProt Q9I2N2)
T1 construct: N-terminal His6 tag (pMCSG7) cleaved by TEV protease; E. coli BL21-Gold (DE3); metal-free
Experiment: isothermal titration calorimetry
Type: binding
From the text: isothermal titration calorimetry on P. aeruginosa PAO1 ModA

T1 sequence (Q9I2N2 23-251): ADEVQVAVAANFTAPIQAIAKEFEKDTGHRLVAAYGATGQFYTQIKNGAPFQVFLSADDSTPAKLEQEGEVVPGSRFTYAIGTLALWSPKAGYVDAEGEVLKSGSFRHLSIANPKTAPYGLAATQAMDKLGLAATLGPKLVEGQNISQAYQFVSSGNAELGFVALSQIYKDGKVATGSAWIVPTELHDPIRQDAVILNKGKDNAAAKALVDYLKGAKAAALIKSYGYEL

SMILES: [O]=[Cr](=[O])([OH])[OH] [CrO, chromate]
- Kd (read-out: CrO-ModA): 927 ± 87.7 nM

SMILES: [O]=[Mo](=[O])([OH])[OH] [MoO, molybdate]
- Kd (read-out: MoO-ModA): 1 ± 1.3 nM

SMILES: [O]=[W](=[O])([OH])[OH] [WO, tungstate]
- Kd (read-out: WO-ModA): 1.2 ± 2 nM
